The values that follow are results of earlier work, collected in patent US6265392A, “Low oxygen content compositions of 1α, 25-dihydroxycholeclciferol” (Abbott Laboratories, priority 2000, dated 2001).

Structures are written as SMILES.

The subject of data set [1] is renal osteodystrophy, hypoparathyroidism, osteomalacia, osteoporosis, hepatic osteodystrophy, vitamin D-resistant rickets, vitamin D-dependent rickets …. Conditions: children and adults; literature.
Data set [2] has as its system intestinal absorption of calcium and phosphorous. Conditions: in vivo.
For data set [3] the following is noted: free molecules and other reactive forms of oxygen; in solution.

Consider `C=C1/C(=C\C=C2/CCC[C@]3(C)[C@@H]([C@H](C)CCCC(C)(C)O)CC[C@@H]23)C[C@@H](O)C[C@@H]1O` [1α,25-dihydroxycholecalciferol], for which the Treatment outcome in data set [1] is given as “successful treatment”. Besides, the “Effect on intestinal absorption of calcium and phosphorous” value in data set [2] was “stimulates intestinal absorption of calcium and phosphorous”. Further, where the note is “organic solvents”, the “Solubility in organic solvents” value is “soluble in organic solvents”. Further, the Solubility in water result (water) is reported as “practically insoluble in water”. In data set [3], the Sensitivity to oxygen result is listed as “sensitive to the presence of oxygen”.
